What all share (assay): Tyrosine kinase activity inhibition rate in cell membrane fraction (Poly-Glu4-Tyr substrate)
Holding throughout (format): biochemical

Assay [1] concerns tyrosine kinase in cell membrane fraction of ZR-75-1. The conditions noted are these: for Inhibition rate: 25 μM kinase inhibitor, 25 μM ATP. Here is the method:
(§1) Breast cancer cell lines shown in Table 3 were cultured in a 150 mm dish so as to be about 80% confluent, the cells were recovered using PBS and a scraper, and a cell pellet was obtained by centrifugal operation (900×g, for 5 minutes, at 4° C.). The pellet was frozen with liquid nitrogen and stored at −80° C. until preparation of the measurement sample.
(§2) 500 μl of NP40 (−) solubilized buffer (20 mM HEPES (pH 7.4)), (w/v) % glycerol, 0.2% protease inhibitor cocktail (#P8340: Sigma-Aldrich (product composition: 104 mM AEBSF, 80 μM aprotinin, 4 mM bestatin, 1.4 mM E-64, 2 mM leupeptin, 1.5 mM Pepstatin A), 50 mM NaF and 200 μM Na3VO4) was added to the cell pellet, followed by stirring for 2 seconds three times using a vortex mixer. After being allowed to stand for 10 minutes, the soluble fraction was removed by centrifugal operation (at 20000×g, for 30 minutes, at 4° C.). The obtained pellet was resuspended in 500 μl of NP40 (−) solubilized buffer, the soluble fraction was again removed by centrifugal operation (at 20000×g, for 20 minutes, at 4° C.), and the pellet was washed. The pellet was resuspended by adding 500 μl of NP40 (+) solubilized buffer (a buffer prepared by adding NP-40 to the NP40 (−) solubilized buffer at a final concentration of 1%) to the pellet, pipetting fifty times, and vortexing for 2 seconds three times. After being allowed to stand for 10 minutes, a cell membrane fraction containing a membrane protein was obtained by centrifugal operation (at 20000×g, for 40 minutes, at 4° C.). The protein concentration of the fraction was measured by DC protein assay (#500-0116 JA: Bio-Rad) and the fraction was used as a sample for kinase activity measurement. The sample was frozen with liquid nitrogen and stored at −80° C. until used for the following kinase activity measurement.
(§3) NeutrAvidin Coated Plates (HBC) (96 white plate; #15509: Pierce) were washed three times with 300 μl of TBS-T (20 mM Tris-HCl (pH 7.4)), 150 mM NaCl, 0.1% Tween), and then 100 μl of Poly-Glu4-Tyr biotin conjugate (#12440: Upstate) which had been diluted to 1 μg/ml with TBS (20 mM Tris-HCl (pH 7.4), 150 mM NaCl) was added to the wells. After shaking at 37° C. and 400 rpm for 90 minutes, the wells were washed with 300 μl of TBS-T three times and a measuring plate was obtained.
(§4) The measurement sample was diluted with a kinase buffer (20 mM HEPES (pH 7.4), 25 mM MgCl2, 1.25 mM MnCl2, 250 μM Na3VO4, 12.5 (w/v) % glycerol) so as to adjust the protein concentration to 6.25 μg/ml. The diluted measurement sample was transferred to wells of a 96 well V bottom plate. A DMSO solution (inhibitor concentration: 5 mM) containing one type of tyrosine kinase inhibitors (Inhibitors 1 to 10 shown in Table 6) was added to the wells at a ratio of 1:160 based on the diluted measurement sample solution, followed by mixing thereof. As the control, DMSO was added to the diluted measurement sample at the same ratio as the solution of the inhibitor. The used tyrosine kinase inhibitors are represented as Inhibitors 1 to 10 in Table 6.
(§5) After addition of the inhibitors, a mixed solution of the measurement sample and the inhibitor was allowed to stand at room temperature for 10 minutes. 40 μl of the mixed solution was transferred to wells of the measuring plate and 10 μl of an ATP solution (20 mM HEPES (pH 7.4), […]) as the phosphate group donor was added to the wells.
(§6) The composition of the solution in the wells is as follows: protein concentration: 5 μg/ml, 20 mM HEPES (pH 7.4), 20 mM MgCl2, 1 mM MnCl2, 200 μM Na3VO4, 10 (w/v) % glycerol, 25 μM ATP, 25 μM kinase inhibitor.
(§7) After shaking the measuring plate at 37° C. and 400 rpm for 60 minutes, the solution was removed from the measuring plate, and the wells were washed with 300 μl of TBS-T three times. 100 μl of Starting Block T20 (TBS) (#37543: Pierce) as a blocking solution was added to the wells, followed by blocking at 37° C. and 400 rpm for 10 minutes. The blocking solution was removed from the measuring plate. […]

In assay [2] the test system is tyrosine kinase in cell membrane fraction of BT-474. The conditions noted are these: for Inhibition rate: 25 μM kinase inhibitor, 25 μM ATP. Here is the method:
as §1, §2, §3, §4, §5, §6, §7

Assay [3] relates to tyrosine kinase in cell membrane fraction of BT-20. The conditions noted are these: for Inhibition rate: 25 μM kinase inhibitor, 25 μM ATP. Here is the method:
as §1, §2, §3, §4, §5, §6, §7

For assay [4], the system named is tyrosine kinase in cell membrane fraction of MDA-MB-453. The conditions noted are these: for Inhibition rate: 25 μM kinase inhibitor, 25 μM ATP. Here is the method:
as §1, §2, §3, §4, §5, §6, §7

Assay [5] has as its system tyrosine kinase in cell membrane fraction of HCC1419. To be noted: for Inhibition rate: 25 μM kinase inhibitor, 25 μM ATP. Here is the method: as §1, §2, §3, §4, §5, §6, §7
Assay [6] deals with tyrosine kinase in cell membrane fraction of UACC812. To be noted: for Inhibition rate: UACC812, 25 μM kinase inhibitor, 25 μM ATP. Here is the method: as §1, §2, §3, §4, §5, §6, §7
Assay [7] relates to tyrosine kinase in cell membrane fraction of MDA-MB-415. To be noted: for Inhibition rate: 25 μM kinase inhibitor, 25 μM ATP. Here is the method:
as §1, §2, §3, §4, §5, §6, §7

Assay [8] relates to tyrosine kinase in cell membrane fraction of MDA-MB-468. The conditions noted are these: for Inhibition rate: 25 μM kinase inhibitor, 25 μM ATP. Here is the method: as §1, §2, §3, §4, §5, §6, §7
Assay [9] deals with tyrosine kinase in cell membrane fraction of ZR-75-30. The conditions noted are these: for Inhibition rate: 25 μM kinase inhibitor, 25 μM ATP. Here is the method:
as §1, §2, §3, §4, §5, §6, §7

Assay [10] has as its system tyrosine kinase in cell membrane fraction of MDA-MB-436. To be noted: for Inhibition rate: 25 μM kinase inhibitor, 25 μM ATP. Here is the method: as §1, §2, §3, §4, §5, §6, §7
The test system of assay [11] is tyrosine kinase in cell membrane fraction of MDA-MB-157. To be noted: for Inhibition rate: 25 μM kinase inhibitor, 25 μM ATP. Here is the method:
as §1, §2, §3, §4, §5, §6, §7

Assay [12] deals with tyrosine kinase in cell membrane fraction of HCC202. The conditions noted are these: for Inhibition rate: 25 μM kinase inhibitor, 25 μM ATP. Here is the method: as §1, §2, §3, §4, §5, §6, §7
The test system of assay [13] is tyrosine kinase in cell membrane fraction of AU565. The conditions noted are these: for Inhibition rate: 25 μM kinase inhibitor, 25 μM ATP. Here is the method:
as §1, §2, §3, §4, §5, §6, §7

Assay [14] concerns tyrosine kinase in cell membrane fraction of BT-549. To be noted: for Inhibition rate: 25 μM kinase inhibitor, 25 μM ATP. Here is the method: as §1, §2, §3, §4, §5, §6, §7
Assay [15] concerns tyrosine kinase in cell membrane fraction of HCC1954. To be noted: for Inhibition rate: 25 μM kinase inhibitor, 25 μM ATP. Here is the method:
as §1, §2, §3, §4, §5, §6, §7

In assay [16] the test system is tyrosine kinase in cell membrane fraction of HCC1569. To be noted: for Inhibition rate: 25 μM kinase inhibitor, 25 μM ATP. Here is the method:
as §1, §2, §3, §4, §5, §6, §7

Assay [17] has as its system tyrosine kinase in cell membrane fraction of HCC1937. To be noted: for Inhibition rate: 25 μM kinase inhibitor, 25 μM ATP. Here is the method: as §1, §2, §3, §4, §5, §6, §7

This is an account of results in US20110318768A1, “METHOD FOR DETERMINING SENSITIVITY OF TUMOR CELLS TO TYROSINE KINASE INHIBITOR AND COMPUTER PROGRAM PRODUCT” (SYSMEX CORPORATION, priority 2010, published 2011).

`COc1cc2ncnc(Nc3ccc(Oc4ccccc4)cc3)c2cc1OC` [Inhibitor 10, 4-(4′-phenoxyanilino)-6,7-dimethoxyquinazoline]: the “Example 1 Inhibitory capacity of Src inhibitor” value (shortened to “Example 1 Inhibitory capacity”) in assay [1] is recorded as “high (the term “high” means a cell line whose inhibition rate of the Src inhibitor is more than the threshold value)”; in assay [2], “low (the term “low” means a cell line whose inhibition rate of the Src inhibitor is lower than the threshold value (=43.4%))”; in assay [3], “high (the term “high” means a cell line whose inhibition rate of the Src inhibitor is more than the threshold value)”; in assay [4], “low (the term “low” means a cell line whose inhibition rate of the Src inhibitor is lower than the threshold value (=43.4%))”; in [5] it was “low (the term “low” means a cell line whose inhibition rate of the Src inhibitor is lower than the threshold value (=43.4%))”; in [6] (UACC-812), “high (the term “high” means a cell line whose inhibition rate of the Src inhibitor is more than the threshold value)”. For the same compound, the “Example 1 Inhibitory capacity” value in assay [7] is recorded as “high (the term “high” means a cell line whose inhibition rate of the Src inhibitor is more than the threshold value)”; in assay [8], “high (the term “high” means a cell line whose inhibition rate of the Src inhibitor is more than the threshold value)”; in [9], “low (the term “low” means a cell line whose inhibition rate of the Src inhibitor is lower than the threshold value (=43.4%))”; in [10], “high (the term “high” means a cell line whose inhibition rate of the Src inhibitor is more than the threshold value)”; in assay [11] it was “high (the term “high” means a cell line whose inhibition rate of the Src inhibitor is more than the threshold value)”; in assay [12], “low (the term “low” means a cell line whose inhibition rate of the Src inhibitor is lower than the threshold value (=43.4%))”. For the same compound, the “Example 1 Inhibitory capacity” value was “low (the term “low” means a cell line whose inhibition rate of the Src inhibitor is lower than the threshold value (=43.4%))” in assay [13]; “high (the term “high” means a cell line whose inhibition rate of the Src inhibitor is more than the threshold value)” in assay [14]; “high (the term “high” means a cell line whose inhibition rate of the Src inhibitor is more than the threshold value)” in assay [15]; “high (the term “high” means a cell line whose inhibition rate of the Src inhibitor is more than the threshold value)” in [16]; “high (the term “high” means a cell line whose inhibition rate of the Src inhibitor is more than the threshold value)” in assay [17]. Besides, the Inhibition rate in [1] was found to be 55.8%; in [2], 37.6%; in [3], 56.6%; in assay [4], 16.3%; in [5], 36.3%; in assay [6], 81.5%. Further, the Inhibition rate stood at 68.6% in assay [7]; 81.0% in assay [8]; 37.3% in [9]; 44.9% in assay [10]; 60.3% in assay [11]; 26.3% in assay [12]. Moreover, the Inhibition rate in assay [13] was found to be 36.8%; in assay [14] it was 60.6%; in assay [15], 46.5%; in [16], 71.3%; in assay [17], 50.1%.

With `CN1CCC(Nc2ncc3ncnc(Nc4ccc(F)c(Cl)c4)c3n2)CC1` [Inhibitor 2], the Inhibition rate is given as 9.0% in [1]; 10.5% in assay [2]; 18.9% in assay [3]; 19.9% in [4]; 6.2% in assay [5]; 30.3% in assay [6]. Besides, the Inhibition rate in assay [7] was 25.0%; in assay [8], 52.1%; in assay [9], 4.4%; in assay [10] it was 19.0%; in assay [11], 14.3%; in [12], 7.7%. The Inhibition rate in [13] came out at 7.7%; in assay [14], 21.7%; in [15], 19.7%; in assay [16], 25.0%; in assay [17], 28.1%.

Regarding `Cc1[nH]c(/C=C2\C(=O)Nc3ccc(S(=O)(=O)N(C)c4cccc(Cl)c4)cc32)c(C)c1C(=O)N1CCN(C)CC1` [Inhibitor 9], the Inhibition rate came out at 53.9% in [1]; 54.6% in assay [2]; 51.4% in assay [3]; 64.4% in [4]; 70.7% in [5]; 78.1% in assay [6]. Also, the Inhibition rate in [7] is 56.7%; in [8], 65.0%; in [9], 65.1%; in assay [10], 74.0%; in assay [11], 56.8%; in [12] it was 69.1%. The Inhibition rate was determined as 55.6% in assay [13]; 81.4% in assay [14]; 65.7% in assay [15]; 67.0% in assay [16]; 52.6% in assay [17].
